Biological target: T1, human EP3 receptor (Homo sapiens, UniProt P43115)
T1 construct: expressed in transfected cells; host or cells: CHO-K1
T1 sequence (P43115 1-390): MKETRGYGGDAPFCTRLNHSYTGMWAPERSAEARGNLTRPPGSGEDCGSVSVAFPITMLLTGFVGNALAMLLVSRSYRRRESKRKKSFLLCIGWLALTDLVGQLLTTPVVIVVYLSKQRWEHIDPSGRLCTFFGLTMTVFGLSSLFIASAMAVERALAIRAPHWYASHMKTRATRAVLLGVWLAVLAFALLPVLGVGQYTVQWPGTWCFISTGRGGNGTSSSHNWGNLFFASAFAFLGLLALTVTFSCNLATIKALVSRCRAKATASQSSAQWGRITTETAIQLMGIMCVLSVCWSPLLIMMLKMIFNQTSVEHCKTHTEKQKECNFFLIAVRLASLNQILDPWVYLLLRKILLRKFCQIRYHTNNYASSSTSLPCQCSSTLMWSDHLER
Experiment: human EP3 calcium mobilisation assay
Type: cell-based
Details: CHO-K1 cells, antagonism of PGE2; averages of a number of experiments; read-out: functional pKi value (human EP3 calcium mobilisation assay) (converted)
Procedure, shortened: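 CHO-K1 cells stably transfected with human EP1 or EP3, loaded with Fluo-4 after 24 h culture, treated with compound, then challenged with PGE2. Calcium-driven fluorescence read on FLIPR; pIC50 is half-maximal inhibition of PGE2-induced calcium mobilisation, from curve fitting.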

Structure (SMILES) | Ki
CC(C)c1cc2cc(Cl)cc(Cc3ccc(C(=O)O)o3)c2o1 [Example 1, 5-{[5-Chloro-2-(1-methylethyl)-1-benzofuran-7-yl]methyl}-2-furancarboxylic Acid] | 0.501 to 10 µM
Cc1cc(C(=O)O)nn1Cc1cc(Cl)cc2cc(C(C)C)oc12 [Example 3, 1-{[5-Chloro-2-(1-methylethyl)-1-benzofuran-7-yl]methyl}-5-methyl-1H-pyrazole-3-carboxylic Acid] | 0.501 to 10 µM
